Key:
[1] = system: acute phosphate uptake into plasma; test: Acute radiolabeled phosphate uptake into plasma in rats; assay type: in vivo
Procedure: A dosing solution for a 10 mg/kg dose of LY3304000 using a 10 mL/kg dosing volume was made in 1% HEC vehicle. The subsequent dosing solutions for 3, 1, 0.3, 0.1, 0.03, 0.01, 0.003, and 0.001 mg/kg were prepared by serial dilutions with HEC. A Radiolabeled Phosphate Dosing Solution was made in a 16.25 mM Na2HPO4, 0.9% saline, pH 7.4, solution with the addition of about 2.5 μCi/mL radioactive phosphate (H3^33PO4, PerkinElmer) and filtered before dosing. Following 12-hour fasting with access to water, male SD rats were orally dosed at 10 mL/kg with either vehicle or varying doses of LY3304000. Fifteen minutes later, 2 mL of the Radiolabeled Phosphate Dosing Solution was dosed by oral gavage. This dose of phosphate was chosen because it approximates the rat equivalent to the amount of bioavailable phosphate in a human meal, 4 mg/kg phosphorus, or 320 mg phosphorus for an 80 kg person on a phosphate restricted diet. Fifteen minutes later, blood was collected by cardiac stick, and plasma was prepared. Radioactivity (dpm) in 50 μL plasma was measured by scintillation counting. To determine the total radioactivity dosed to each rat, the radioactivity in two 10-μL samples of the Radiolabeled Phosphate Dosing Solution was measured by scintillation counting. To calculate the total radioactivity recovered in plasma, it was assumed that total blood volume constitutes about 60% of the body weight and plasma constitutes about 55% of the total blood. The mole amount of phosphate uptake was calculated as the percentage of administered radiolabeled phosphate recovered in the plasma of vehicle or LY3304000 treated rats multiplied by total phosphate amount in the radiolabeled phosphate dosing solution. ED50 values were then determined with a 4-parameter logistic curve fitting model using GraphPad Prism. A 15-minute time point, post phosphate dosing, was chosen for collecting blood in the acute phosphate uptake studies in rats and mice (see below) to capture the initial rate of phosphate absorption. We wanted to avoid measurements at longer time points when plasma radiolabeled phosphate appears to be at a steady state.

[2] = Pharmacokinetics study after oral dosing; assay type: in vivo, rats
Procedure: Following oral dosing of the free base from of LY3304000 in a vehicle of 1% Hydroxyethylcellulose, 0.25% Polysorbate 80, and 0.05% Antifoam in purified water, the level of LY3304000 in rat blood 2.5-hour post dose was below the limit of quantification of LY330400 (0.815 nM with LC/MS method). Further characterization of the pharmacokinetic properties of LY3304000 was hampered by an inability to identify an appropriate vehicle for IV dosing.

Question: What does the source list for `CN1Cc2c(Cl)cc(Cl)cc2[C@H](c2cccc(S(=O)(=O)NCCOCCOCCN/C(=N\C(N)=O)NCCCCN/C(=N/C(N)=O)NCCOCCOCCNS(=O)(=O)c3cccc([C@@H]4CN(C)Cc5c(Cl)cc(Cl)cc54)c3)c2)C1.Cl.Cl` [LY3304000, (Z)-[[4-[[(Z)-N’-carbamoyl-N-[2-[2-[2-[[3-[(4S)-6,8-dichloro-2-methyl-3,4-dihydro-1H-isoquinolin-4-yl]phenyl]sulfonylamino]ethoxy]ethoxy]ethyl]carbamimidoyl]amino]butylamino]-[2-[2-[2-[[3-[(4S)-6,8-dichloro-2-methyl-3,4-dihydro-1H-isoquinolin-4-yl]phenyl]sulfonylamino]ethoxy]ethoxy]ethylamino]methylene]urea dihydrochloride]?
Answer: maximal inhibition of phosphate uptake [1]: 37%; ED50 ([1]; Rattus norvegicus, po, 0.25 h, oral, plasma 15 min post 33P phosphate, read-out: ED50 (decrease of phosphate uptake)): 0.04 mg/kg; Emax, Pi uptake ([1]; curve fit): 266.8 nmol; ED50 (decrease of phosphate uptake) ([1]; oral, plasma 15 min post 33P phosphate): 0.041 mg/kg; radiolabeled phosphate in plasma, maximal determined decrease ([1]; vehicle 416 nmoles): 264 nmol; detection in plasma following oral dosing ([2]; oral dosing): could not be detected; concentration at 2.5 h ([2]; rat, whole blood, oral, free base, 2.5-hour post dose, below limit of quantification (LC/MS), read-out: level in rat blood): < 0.815 nM

Source: PMC10817170, “Effect of an NHE3 inhibitor in combination with an NPT2b inhibitor on gastrointestinal phosphate absorption in Rodent models” (PLOS ONE, 2024)
